This experiment deals with CRL4^CRBN-pomalidomide-SALL4 ZF1-ZF2 (aa 378–453) ternary complex (Homo sapiens, UniProt Q96SW2+Q9UJQ4). To be noted: presence vs absence of pomalidomide.
CRL4^CRBN-pomalidomide-SALL4 ZF1-ZF2 (aa 378–453) ternary complex, sequence (Q9UJQ4 378-453 limits assumed): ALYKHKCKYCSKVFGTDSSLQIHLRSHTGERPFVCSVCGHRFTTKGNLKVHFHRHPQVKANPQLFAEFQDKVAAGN
CRL4^CRBN-pomalidomide-SALL4 ZF1-ZF2 (aa 378–453) ternary complex, sequence (Q96SW2 whole entry, the tested form may be a part): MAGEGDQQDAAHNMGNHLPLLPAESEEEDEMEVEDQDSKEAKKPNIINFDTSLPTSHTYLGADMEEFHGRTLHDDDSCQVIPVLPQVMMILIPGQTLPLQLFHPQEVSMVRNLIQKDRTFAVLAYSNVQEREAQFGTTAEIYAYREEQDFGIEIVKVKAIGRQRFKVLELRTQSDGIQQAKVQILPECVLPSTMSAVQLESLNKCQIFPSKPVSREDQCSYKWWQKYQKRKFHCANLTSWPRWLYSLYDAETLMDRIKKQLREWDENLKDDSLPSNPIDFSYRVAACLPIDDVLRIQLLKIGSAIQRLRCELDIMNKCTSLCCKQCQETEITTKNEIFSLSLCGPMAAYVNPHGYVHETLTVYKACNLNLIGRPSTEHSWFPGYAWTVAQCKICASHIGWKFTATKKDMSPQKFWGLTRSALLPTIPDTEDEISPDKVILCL
CRL4^CRBN-pomalidomide-SALL4 ZF1-ZF2 (aa 378–453) ternary complex, sequence (Q16531 whole entry partner, the tested form may be a part): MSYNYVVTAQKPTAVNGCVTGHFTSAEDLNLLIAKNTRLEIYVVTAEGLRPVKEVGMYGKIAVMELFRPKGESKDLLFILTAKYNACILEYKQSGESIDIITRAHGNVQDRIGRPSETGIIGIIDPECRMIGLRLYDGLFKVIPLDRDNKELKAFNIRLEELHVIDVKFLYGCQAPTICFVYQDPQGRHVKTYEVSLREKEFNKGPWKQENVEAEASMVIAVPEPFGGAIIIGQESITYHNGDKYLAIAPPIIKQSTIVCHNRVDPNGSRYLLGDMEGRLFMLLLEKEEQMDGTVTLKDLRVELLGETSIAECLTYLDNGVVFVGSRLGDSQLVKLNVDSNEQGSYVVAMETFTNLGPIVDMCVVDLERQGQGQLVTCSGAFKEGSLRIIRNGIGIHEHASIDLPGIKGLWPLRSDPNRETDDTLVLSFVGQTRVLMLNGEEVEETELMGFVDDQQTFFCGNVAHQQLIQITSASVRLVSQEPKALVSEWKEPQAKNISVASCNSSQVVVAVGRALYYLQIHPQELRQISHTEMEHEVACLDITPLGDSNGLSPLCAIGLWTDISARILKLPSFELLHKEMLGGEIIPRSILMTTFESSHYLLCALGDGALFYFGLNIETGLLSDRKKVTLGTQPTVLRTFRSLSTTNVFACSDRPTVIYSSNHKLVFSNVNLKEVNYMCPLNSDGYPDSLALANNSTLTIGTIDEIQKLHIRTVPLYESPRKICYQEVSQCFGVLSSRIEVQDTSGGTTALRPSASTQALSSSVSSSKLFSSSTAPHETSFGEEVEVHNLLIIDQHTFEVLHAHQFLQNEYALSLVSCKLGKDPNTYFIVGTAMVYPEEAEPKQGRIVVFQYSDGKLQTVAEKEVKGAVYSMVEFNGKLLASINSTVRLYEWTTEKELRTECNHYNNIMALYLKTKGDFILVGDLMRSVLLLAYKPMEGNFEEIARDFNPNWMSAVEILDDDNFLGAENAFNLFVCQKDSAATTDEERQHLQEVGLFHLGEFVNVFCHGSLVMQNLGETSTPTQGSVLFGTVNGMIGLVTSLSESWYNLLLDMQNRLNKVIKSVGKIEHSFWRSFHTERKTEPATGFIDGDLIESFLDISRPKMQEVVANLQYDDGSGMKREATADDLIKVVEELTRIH
CRL4^CRBN-pomalidomide-SALL4 ZF1-ZF2 (aa 378–453) ternary complex, sequence (Q13619 whole entry partner, the tested form may be a part): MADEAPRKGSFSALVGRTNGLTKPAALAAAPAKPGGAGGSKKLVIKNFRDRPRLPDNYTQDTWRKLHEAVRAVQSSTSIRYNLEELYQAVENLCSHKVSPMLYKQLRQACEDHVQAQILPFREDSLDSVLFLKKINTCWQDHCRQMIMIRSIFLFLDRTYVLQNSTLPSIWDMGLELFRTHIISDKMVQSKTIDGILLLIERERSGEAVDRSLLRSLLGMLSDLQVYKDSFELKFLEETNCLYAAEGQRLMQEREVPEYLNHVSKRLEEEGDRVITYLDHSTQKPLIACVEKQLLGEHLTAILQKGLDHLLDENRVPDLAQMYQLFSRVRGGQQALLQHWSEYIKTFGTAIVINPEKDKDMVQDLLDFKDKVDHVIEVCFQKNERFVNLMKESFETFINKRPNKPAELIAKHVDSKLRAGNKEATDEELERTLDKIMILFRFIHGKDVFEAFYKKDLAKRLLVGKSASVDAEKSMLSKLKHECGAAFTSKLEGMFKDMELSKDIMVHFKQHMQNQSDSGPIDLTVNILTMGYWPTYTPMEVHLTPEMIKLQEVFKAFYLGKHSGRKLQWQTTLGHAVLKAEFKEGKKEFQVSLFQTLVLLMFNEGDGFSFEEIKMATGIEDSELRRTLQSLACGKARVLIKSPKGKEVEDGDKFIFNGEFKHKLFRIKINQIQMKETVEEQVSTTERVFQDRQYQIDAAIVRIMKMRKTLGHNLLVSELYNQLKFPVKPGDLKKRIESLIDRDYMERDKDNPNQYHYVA
CRL4^CRBN-pomalidomide-SALL4 ZF1-ZF2 (aa 378–453) ternary complex, sequence (P62877 whole entry partner, the tested form may be a part): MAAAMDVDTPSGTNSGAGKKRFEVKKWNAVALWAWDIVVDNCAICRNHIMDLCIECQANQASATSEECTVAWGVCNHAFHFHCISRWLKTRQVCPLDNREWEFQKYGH
CRL4^CRBN-pomalidomide-SALL4 ZF1-ZF2 (aa 378–453) ternary complex, sequence (Q15843 1-76 partner limits assumed): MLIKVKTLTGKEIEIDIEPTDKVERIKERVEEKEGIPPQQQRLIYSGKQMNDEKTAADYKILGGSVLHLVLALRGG

On to `Nc1cccc2c1C(=O)N(C1CCC(=O)NC1=O)C2=O` (stereo not shown) [Pomalidomide], for which the “enhancement of SALL4 recruitment by CRL4^CRBN in the presence of pomalidomide” value is “more than 10 fold”.
